Reference: patent publication US8828985B2, “Carbamate and urea inhibitors of 11-beta-hydroxysteroid dehydrogenase 1” (Vitae Pharmaceuticals, Inc., priority 2008, dated 2014)
Like-named read-outs stand apart in the source and are kept apart here.

Target: human 11β-HSD1 (Homo sapiens, UniProt P28845)
Assay: biochemical
Conditions: for inhibition at 0.1 µM / inhibition at 0.111 µM: 1.5 h; for IC50: Biological Test Example 2 IC50 Range, microsomes from CHO cells overexpressing human 11β-HSD1, SPA; for inhibition at 0.111 µM: read-out: Biological Test Example 2 Average % inhibition at 111 nm, at 111 nm
[1] = read-out: Biological Test Example 2 Average % inhibition at 100 nm, at 100 nm

Chain of human 11β-HSD1 (P28845 whole entry): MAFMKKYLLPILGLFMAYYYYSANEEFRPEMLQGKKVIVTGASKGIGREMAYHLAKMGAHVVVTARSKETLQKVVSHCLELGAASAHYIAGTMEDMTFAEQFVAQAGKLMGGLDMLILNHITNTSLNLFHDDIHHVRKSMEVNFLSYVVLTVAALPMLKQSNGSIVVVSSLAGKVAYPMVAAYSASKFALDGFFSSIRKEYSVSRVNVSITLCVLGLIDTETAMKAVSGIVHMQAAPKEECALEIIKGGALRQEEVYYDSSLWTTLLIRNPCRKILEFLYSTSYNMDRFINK
Protocol: All reactions are carried out at room temperature in 96 well clear flexible PET Microbeta plates (PerkinElmer). […] The reaction is stopped by adding 50 μl of the SPA beads suspension containing 10 μM 18β-glycyrrhetinic acid, 5 mg/ml protein A coated YSi SPA beads (GE Healthcare) and 3.3 μg/ml of anti-cortisol antibody (East Coast Biologics) in Superblock buffer (Bio-Rad). The plates are then shaken for 120 minutes at room temperature, and the SPA signal corresponding to [^3H]cortisol is measured on a Microbeta plate reader.

| SMILES | inhibition at 0.1 µM [1] [%] | IC50 [nM] | inhibition at 0.111 µM [%] | inhibition at 0.1 µM (read-out: Biological Test Example 2 Average % inhibition at 100 nm) [%] |
| --- | --- | --- | --- | --- |
| O=C(NC1CC1)c1ccc2nc(N[C@@H]3CCN(C(=O)O[C@H]4C5CC6CC4C[C@](O)(C6)C5)C3)sc2c1 [Example 103, (R)-(trans-1-hydroxy-4-adamantyl) 3-(6-(cyclopropylcarbamoyl)benzo[d]thiazol-2-ylamino)pyrrolidine-1-carboxylate] | 88.8 | < 100 |  |  |
| NC(=O)C12CC3CC(C1)C(OC(=O)N1CC[C@@H](Nc4ncccc4F)C1)C(C3)C2 (stereo partly drawn) [Example 63, (R)-(trans-1-carbamoyl-4-adamantyl) 3-(3-fluoropyridin-2-ylamino)pyrrolidine-1-carboxylate] | 98.4 | < 100 |  |  |
| N#Cc1cccnc1N[C@@H]1CCN(C(=O)O[C@H]2C3CC4CC2C[C@](C(N)=O)(C4)C3)C1 [Example 34, (R)-(trans-1-carbamoyl-4-adamantyl) 3-(3-cyanopyridin-2-ylamino)pyrrolidine-1-carboxylate] | 94.6 | < 100 |  |  |
| N#Cc1ccc(N[C@@H]2CCN(C(=O)NC3C4CC5CC(C4)CC3C5)C2)nc1 (stereo partly drawn) [Example 61, (R)-3-(5-cyanopyridin-2-ylamino)-N-(2-adamantyl)pyrrolidine-1-carboxamide] |  | < 100 |  | 97.6 |
| CC(C)(C)NC(=O)c1cc(Cl)cnc1N[C@@H]1CCN(C(=O)O[C@H]2C3CC4CC2C[C@](O)(C4)C3)C1 [Example 102, (R)-(trans-1-hydroxy-4-adamantyl) 3-(3-(tert-butylcarbamoyl)-5-chloropyridin-2-ylamino)pyrrolidine-1-carboxylate] | 78.7 | < 100 |  |  |
| Cc1nc(N[C@@H]2CCN(C(=O)O[C@H]3C4CC5CC3C[C@](O)(C5)C4)C2)ccc1C#N [Example 84, (R)-(trans-1-hydroxy-4-adamantyl) 3-(5-cyano-6-methylpyridin-2-ylamino)pyrrolidine-1-carboxylate] | 71.6 | < 100 |  |  |
| N#Cc1ccc2nc(N[C@@H]3CCN(C(=O)O[C@H]4C5CC6CC4C[C@](O)(C6)C5)C3)sc2c1 [Example 94, (R)-(trans-1-hydroxy-4-adamantyl) 3-(6-cyanobenzo[d]thiazol-2-ylamino)pyrrolidine-1-carboxylate] | 90.8 | < 100 |  |  |
| CC(C)(C)OC(=O)NC1(C(F)(F)F)CCN(C(=O)O[C@H]2C3CC4CC2C[C@](C(N)=O)(C4)C3)C1 (stereo partly drawn) [Example 113, (trans-1-carbamoyl-4-adamantyl) 3-(tert-butoxycarbonylamino)-3-(trifluoromethyl)pyrrolidine-1-carboxylate] | 92 | < 100 |  |  |
| O=C(O[C@H]1C2CC3CC1C[C@](O)(C3)C2)N1CC[C@@H](Nc2nc3ccc(Cl)cc3s2)C1 [Example 97, (R)-(trans-1-hydroxy-4-adamantyl) 3-(6-chlorobenzo[d]thiazol-2-ylamino)pyrrolidine-1-carboxylate] | 91.1 | < 100 |  |  |
| COC(=O)c1cnc(N[C@@H]2CCN(C(=O)O[C@H]3C4CC5CC3C[C@](O)(C5)C4)C2)nc1 [Example 107, Methyl 2-((R)-1-((trans-1-hydroxy-4-adamantyloxy)carbonyl)pyrrolidin-3-ylamino)pyrimidine-5-carboxylate] |  | < 100 |  |  |
| O=C(O[C@H]1C2CC3CC1C[C@](O)(C3)C2)N1CC[C@@H](Nc2ncc(Cl)cc2[N+](=O)[O-])C1 [Example 93, (R)-(trans-1-hydroxy-4-adamantyl) 3-(5-chloro-3-nitropyridin-2-ylamino)pyrrolidine-1-carboxylate] |  | < 100 |  |  |
| CNC(=O)c1cnc(N[C@@H]2CCN(C(=O)O[C@H]3C4CC5CC3C[C@](O)(C5)C4)C2)nc1 [Example 110, (R)-(trans-1-hydroxy-4-adamantyl) 3-(5-(methylcarbamoyl)pyrimidin-2-ylamino)pyrrolidine-1-carboxylate] | 32.2 | > 100 |  |  |
| CC1(Nc2ccc(C#N)cn2)CCN(C(=O)O[C@H]2C3CC4CC2C[C@](C(N)=O)(C4)C3)C1 (stereo partly drawn) [Example 69, (trans-1-carbamoyl-4-adamantyl) 3-(5-cyanopyridin-2-ylamino)-3-methylpyrrolidine-1-carboxylate] | 98.7 | < 100 |  |  |
| CC(C)(C)OC(=O)NC1(c2ccccc2)CCN(C(=O)OC2C3CC4CC(C3)CC2C4)C1 (stereo not shown) [Example 13, (2-adamantyl) 3-(tert-butoxycarbonylamino)-3-phenylpyrrolidine-1-carboxylate] | 87.7 | < 100 |  |  |
| N#Cc1cccnc1NC1CCN(C(=O)O[C@H]2C3CC4CC2C[C@](C(N)=O)(C4)C3)CC1 [Example 68, (1-carbamoyl-4-adamantyl) 4-(3-cyanopyridin-2-ylamino)piperidine-1-carboxylate] | 90.7 | < 100 |  |  |
| CS(=O)(=O)N1C2CCC1CC(NC(=O)N1CC[C@@H](Nc3ccc(C#N)cn3)C1)C2 (stereo partly drawn) [Example 106, (3R)-3-(5-cyanopyridin-2-ylamino)-N-(8-(methylsulfonyl)-8-azabicyclo[3.2.1]octan-3-yl)pyrrolidine-1-carboxamide] | 3.9 | > 100 |  |  |
| N#Cc1ccc(N2CCC3CN(C(=O)O[C@H]4C5CC6CC4C[C@](C(N)=O)(C6)C5)CC32)nc1 (stereo partly drawn) [Example 76, (trans-1-carbamoyl-4-adamantyl) 1-(5-cyanopyridin-2-yl)hexahydropyrrolo[3,4-b]pyrrole-5(1H)-carboxylate] | 97.9 | < 100 | 101 |  |
| CN(C)C(=O)c1cccnc1N[C@@H]1CCN(C(=O)O[C@H]2C3CC4CC2C[C@](O)(C4)C3)C1 [Example 89, (R)-(trans-1-hydroxy-4-adamantyl) 3-(3-(dimethylcarbamoyl)pyridin-2-ylamino)pyrrolidine-1-carboxylate] | 39.1 | > 100 |  |  |
| CC(C)(C)OC(=O)NC1(c2ccccc2)CCN(C(=O)NC2C3CC4CC(C3)CC2C4)C1 (stereo not shown) [Example 60, tert-butyl 1-(2-adamantylcarbamoyl)-3-phenylpyrrolidin-3-ylcarbamate] |  | < 100 | 83.3 |  |

Further lines, with some results ahead:

| inhibition at 0.1 µM [1] [%] | IC50 [nM] | inhibition at 0.111 µM [%] | SMILES | inhibition at 0.1 µM (read-out: Biological Test Example 2 Average % inhibition at 100 nm) [%] |
| --- | --- | --- | --- | --- |
| 95.5 | < 100 |  | N#Cc1cccnc1N[C@H]1CCN(C(=O)O[C@H]2C3CC4CC2C[C@](C(N)=O)(C4)C3)C1 [Example 66, (S)-(trans-1-carbamoyl-4-adamantyl) 3-(3-cyanopyridin-2-ylamino)pyrrolidine-1-carboxylate] |  |
| 101 | < 100 |  | N#Cc1ccc(N[C@@H]2CCN(C(=O)O[C@H]3C4CC5CC3C[C@](C(N)=O)(C5)C4)C2)nc1 [Example 35, (R)-(trans-1-carbamoyl-4-adamantyl) 3-(5-cyanopyridin-2-ylamino)pyrrolidine-1-carboxylate] |  |
| 95.2 | < 100 |  | NC(=O)C12CC3CC(C1)C(OC(=O)N1CC[C@@H](Nc4ccc(F)cn4)C1)C(C3)C2 (stereo partly shown) [Example 115] |  |
| 91.1 | < 100 |  | CNC(=O)c1cc(Cl)cnc1N[C@@H]1CCN(C(=O)O[C@H]2C3CC4CC2C[C@](O)(C4)C3)C1 [Example 98, (R)-(trans-1-hydroxy-4-adamantyl) 3-(5-chloro-3-(methylcarbamoyl)pyridin-2-ylamino)pyrrolidine-1-carboxylate] |  |
| 33.5 | > 100 |  | CN(C)C(=O)c1cnc(N[C@@H]2CCN(C(=O)O[C@H]3C4CC5CC3C[C@](O)(C5)C4)C2)nc1 [Example 111, (R)-(trans-1-hydroxy-4-adamantyl) 3-(5-(dimethylcarbamoyl)pyrimidin-2-ylamino)pyrrolidine-1-carboxylate] |  |
| 97.2 | < 100 |  | CN(c1ncccc1C(F)(F)F)C1CCN(C(=O)O[C@H]2C3CC4CC2C[C@](C(N)=O)(C4)C3)C1 (stereo partly drawn) [Example 44, (trans-1-carbamoyl-4-adamantyl) 3-(methyl(3-(trifluoromethyl)pyridin-2-yl)amino)pyrrolidine-1-carboxylate] |  |
| 21.8 | > 100 |  | CN(C(=O)c1ccc(N[C@@H]2CCN(C(=O)O[C@H]3C4CC5CC3C[C@](O)(C5)C4)C2)nc1)C(C)(C)C [Example 99, (trans-1-hydroxy-4-adamantyl) 3-(5-(tert-butyl(methyl)carbamoyl)pyridin-2-ylamino)pyrrolidine-1-carboxylate] |  |
| 97 | < 100 |  | CC1(Nc2ncccc2C#N)CCN(C(=O)O[C@H]2C3CC4CC2C[C@](C(N)=O)(C4)C3)C1 (stereo partly drawn) [Example 67, (trans-1-carbamoyl-4-adamantyl) 3-(3-cyanopyridin-2-ylamino)-3-methylpyrrolidine-1-carboxylate] |  |
| 82.6 | < 100 |  | O=C(NC1CC1)c1cc(Cl)cnc1N[C@@H]1CCN(C(=O)O[C@H]2C3CC4CC2C[C@](O)(C4)C3)C1 [Example 101, (R)-(trans-1-hydroxy-4-adamantyl) 3-(5-chloro-3-(cyclopropylcarbamoyl)pyridin-2-ylamino)pyrrolidine-1-carboxylate] |  |
| 102 | < 100 |  | CN(c1ccc(C(F)(F)F)cn1)C1CCN(C(=O)O[C@H]2C3CC4CC2C[C@](C(N)=O)(C4)C3)C1 (stereo partly drawn) [Example 43, (trans-1-carbamoyl-4-adamantyl) 3-(methyl(5-(trifluoromethyl)pyridin-2-yl)amino)pyrrolidine-1-carboxylate] |  |
| 80.1 | < 100 |  | N#Cc1ccc(N[C@@H]2CCN(C(=O)O[C@H]3C4CC5CC3C[C@](O)(C5)C4)C2)cc1 [Example 78, (R)-(trans-1-hydroxy-4-adamantyl) 3-(4-cyanophenylamino)pyrrolidine-1-carboxylate] |  |
| 101 | < 100 |  | N#Cc1cc(Cl)cnc1N[C@@H]1CCN(C(=O)O[C@H]2C3CC4CC2C[C@](O)(C4)C3)C1 [Example 86, (R)-(trans-1-hydroxy-4-adamantyl) 3-(5-chloro-3-cyanopyridin-2-ylamino)pyrrolidine-1-carboxylate] |  |
